Results published in patent US20170232083A1, “METHODS OF DIAGNOSIS AND TREATMENT OF CELIAC DISEASE IN CHILDREN” (priority 2014, published 2017).

Experiments:
[1] = tested on: PBMC (polyclonal gluten-specific T cells) of paediatric and adult CD patients; conditions: corresponding adult data shown for comparison (14); cited from earlier work
[2] = tested on: PBMC (polyclonal gluten-specific T cells) of paediatric and adult CD patients; experiment: IFN-γ ELISpot of PBMC after 3 day oral wheat challenge (SFU, % of maximal peptide response, dominance scores, EC50; Examples 5-6); assay type: cell-based, human; conditions: for Dominance score 3-5yrs (n = 9): CD children 3-5yrs, n = 9, following wheat challenge; for Dominance score 3-5yrs (n = 9) / Dominance score 6-10yrs (n = 10) / Dominance score 11-18yrs (n = 11): mean percentage of maximal peptide response; for Dominance score 6-10yrs (n = 10): CD children 6-10yrs, n = 10, following wheat challenge; for Dominance score 11-18yrs (n = 11): CD children 11-18yrs, n = 11, following wheat challenge; for Dominance score Mean all ages: CD children, following wheat challenge (Table 9); for Dominance scores 3-5 yrs: children with celiac disease 3-5 yrs after wheat challenge (Table 14); for Dominance scores 6-10 yrs: children with celiac disease 6-10 yrs after wheat challenge (Table 14); for Dominance scores 11-18 yrs: children with celiac disease 11-18 yrs after wheat challenge (Table 14); for Dominance scores Mean all ages: mean of all subjects (Table 14); for dominance hierarchy across all age groupings: Example 5; for dominance hierarchy across all age groups: Example 6; for IFN-γ ELISpot response: after oral wheat challenge
[3] = patient A, 11-17 yrs, cut-off 10 SFU
[4] = patient D, max peptide 30.5 SFU
[5] = patient E, H, 11-17 yrs, cut-off 10 SFU
[6] = patient F, 11-17 yrs, cut-off 10 SFU
[7] = patient G, 11-17 yrs, cut-off 10 SFU
[8] = patient H (HLA-DQ2.5 homozygote), 3-5yrs, cut-off 10 SFU
[9] = patient H, 11-17 yrs, cut-off 10 SFU
[10] = patient ID not given, 11-17 yrs, cut-off 10 SFU
[11] = patient ID not given, max peptide 95 SFU
[12] = patient N, 3-5yrs, cut-off 10 SFU
[13] = patient P, 11-17 yrs, cut-off 21.6 SFU
[14] = patient Q, 11-17 yrs, cut-off 10 SFU
[15] = patient U, H, 11-17 yrs, cut-off 10 SFU
[16] = patient V, 6-10 yrs, cut-off 10 SFU
[17] = patient Y, 6-10 yrs, cut-off 10 SFU
[18] = patient eleven, 6-10 yrs, cut-off 10 SFU
[19] = patient eleven, max peptide 57 SFU
[20] = patient five, max peptide 48 SFU
[21] = patient seven, 6-10 yrs, cut-off 10.5 SFU
[22] = patient ten, 3-5yrs, cut-off 10 SFU
[23] = patient three, 6-10 yrs, cut-off 10.5 SFU
[24] = patient twelve, 11-17 yrs, cut-off 10 SFU
[25] = patient two, 3-5yrs, cut-off 10 SFU
[26] = patient two, max peptide 60 SFU

W16 (FPQPEQEFPQPQQ) [Peptide W16]
Dominance scores 18+ yrs [1]: 0
Dominance score 3-5yrs (n = 9) [2]: 19.8
Dominance score 6-10yrs (n = 10) [2]: 47.3
Dominance score 11-18yrs (n = 11) [2]: 26.1
Dominance score Mean all ages [2]: 32.6
Dominance scores 3-5 yrs [2]: 23
Dominance scores 6-10 yrs [2]: 47
Dominance scores 11-18 yrs [2]: 26
Dominance scores Mean all ages [2]: 33

LPYPQPELPYPQP [Peptide W01]
Dominance scores 18+ yrs [1]: 69
Dominance score 3-5yrs (n = 9) [2]: 68.5
Dominance score 6-10yrs (n = 10) [2]: 71.7
Dominance score 11-18yrs (n = 11) [2]: 51.0
Dominance score Mean all ages [2]: 62.6
dominance hierarchy across all age groupings [2]: most dominant three peptides
dominance hierarchy across all age groups [2]: most dominant four peptides
Dominance scores 3-5 yrs [2]: 65
Dominance scores 6-10 yrs [2]: 72
Dominance scores 11-18 yrs [2]: 51
Dominance scores Mean all ages [2]: 62
IFN-γ ELISpot response [2, 3]: 2 SFU
Significant response as percentage of maximal peptide SFU [2, 4]: ′′ (21-40% = ′′)
IFN-γ ELISpot response [2, 5]: 111 SFU
Significant response as percentage of maximal peptide SFU ([2]; patient E, max peptide 224 SFU): ′′′ (41-70% = ′′′)
IFN-γ ELISpot response [2, 6]: 161 SFU
Significant response as percentage of maximal peptide SFU ([2]; patient F, max peptide 178 SFU): + (>70% = +)
IFN-γ ELISpot response [2, 7]: 7 SFU
IFN-γ ELISpot response [2, 8]: 33 SFU
IFN-γ ELISpot response [2, 9]: 10 SFU
Significant response as percentage of maximal peptide SFU ([2]; patient H, max peptide 17 SFU): ′′′ (41-70% = ′′′)
IFN-γ ELISpot response [2, 10]: 62 SFU
Significant response as percentage of maximal peptide SFU [2, 11]: ′′′ (41-70% = ′′′)
Significant response as percentage of maximal peptide SFU ([2]; patient II, max peptide 15 SFU): + (>70% = +)
Significant response as percentage of maximal peptide SFU ([2]; patient J, max peptide 196 SFU): + (>70% = +)
Significant response as percentage of maximal peptide SFU ([2]; patient K, max peptide 53 SFU): + (>70% = +)
Significant response as percentage of maximal peptide SFU ([2]; patient L, max peptide 11 SFU): + (>70% = +)
Significant response as percentage of maximal peptide SFU ([2]; patient M, max peptide 48 SFU): ′′′ (41-70% = ′′′)
IFN-γ ELISpot response [2, 12]: 6 SFU
IFN-γ ELISpot response [2, 13]: 36 SFU
Significant response as percentage of maximal peptide SFU ([2]; patient P, max peptide 64 SFU): ′′′ (41-70% = ′′′)
IFN-γ ELISpot response [2, 14]: 78 SFU
Significant response as percentage of maximal peptide SFU ([2]; patient Q, max peptide 97 SFU): + (>70% = +)
IFN-γ ELISpot response [2, 15]: 44 SFU
Significant response as percentage of maximal peptide SFU ([2]; patient U, max peptide 81 SFU): ′′′ (41-70% = ′′′)
IFN-γ ELISpot response [2, 16]: 35 SFU
Significant response as percentage of maximal peptide SFU ([2]; patient V, max peptide 35 SFU): + (>70% = +)
IFN-γ ELISpot response [2, 17]: 16 SFU
Significant response as percentage of maximal peptide SFU ([2]; patient Y, max peptide 16 SFU): + (>70% = +)
IFN-γ ELISpot response [2, 18]: 45 SFU
Significant response as percentage of maximal peptide SFU [2, 19]: + (>70% = +)
Significant response as percentage of maximal peptide SFU [2, 20]: ′′′ (41-70% = ′′′)
IFN-γ ELISpot response ([2]; patient four, 3-5yrs, cut-off 10 SFU): 44 SFU
Significant response as percentage of maximal peptide SFU ([2]; patient four, max peptide 44 SFU): + (>70% = +)
IFN-γ ELISpot response [2, 21]: 3 SFU
IFN-γ ELISpot response [2, 22]: 9 SFU
IFN-γ ELISpot response [2, 23]: 196 SFU
IFN-γ ELISpot response [2, 24]: 12 SFU
IFN-γ ELISpot response [2, 25]: 33 SFU
Significant response as percentage of maximal peptide SFU [2, 26]: ′′′ (41-70% = ′′′)

LQPFPQPELPFPQP [Peptide W06]
Dominance scores 18+ yrs [1]: 15
Dominance score 3-5yrs (n = 9) [2]: 53.1
Dominance score 6-10yrs (n = 10) [2]: 52.7
Dominance score 11-18yrs (n = 11) [2]: 53.8
Dominance score Mean all ages [2]: 53.2
dominance hierarchy across all age groups [2]: most dominant four peptides
Dominance scores 3-5 yrs [2]: 58
Dominance scores 6-10 yrs [2]: 53
Dominance scores 11-18 yrs [2]: 54
Dominance scores Mean all ages [2]: 54
IFN-γ ELISpot response [2, 3]: 5 SFU
Significant response as percentage of maximal peptide SFU [2, 4]: ′′′ (41-70% = ′′′)
IFN-γ ELISpot response [2, 5]: 103 SFU
Significant response as percentage of maximal peptide SFU ([2]; patient E, max peptide 224 SFU): ′′′ (41-70% = ′′′)
IFN-γ ELISpot response [2, 6]: 107 SFU
Significant response as percentage of maximal peptide SFU ([2]; patient F, max peptide 178 SFU): ′′′′
IFN-γ ELISpot response [2, 7]: 7 SFU
IFN-γ ELISpot response [2, 8]: 41 SFU
IFN-γ ELISpot response [2, 9]: 16 SFU
Significant response as percentage of maximal peptide SFU ([2]; patient H, max peptide 17 SFU): + (>70% = +)
IFN-γ ELISpot response [2, 10]: 59 SFU
Significant response as percentage of maximal peptide SFU [2, 11]: ′′′ (41-70% = ′′′)
Significant response as percentage of maximal peptide SFU ([2]; patient II, max peptide 15 SFU): + (>70% = +)
Significant response as percentage of maximal peptide SFU ([2]; patient J, max peptide 196 SFU): ′′′ (41-70% = ′′′)
Significant response as percentage of maximal peptide SFU ([2]; patient K, max peptide 53 SFU): ′′ (21-40% = ′′)
Significant response as percentage of maximal peptide SFU ([2]; patient M, max peptide 48 SFU): + (>70% = +)
IFN-γ ELISpot response [2, 12]: 4 SFU
IFN-γ ELISpot response [2, 13]: 33 SFU
Significant response as percentage of maximal peptide SFU ([2]; patient P, max peptide 64 SFU): ′′′ (41-70% = ′′′)
IFN-γ ELISpot response [2, 14]: 65 SFU
Significant response as percentage of maximal peptide SFU ([2]; patient Q, max peptide 97 SFU): ′′′ (41-70% = ′′′)
IFN-γ ELISpot response [2, 15]: 54 SFU
Significant response as percentage of maximal peptide SFU ([2]; patient U, max peptide 81 SFU): ′′′′
IFN-γ ELISpot response [2, 16]: 22 SFU
Significant response as percentage of maximal peptide SFU ([2]; patient V, max peptide 35 SFU): ′′′ (41-70% = ′′′)
IFN-γ ELISpot response [2, 17]: 6 SFU
Significant response as percentage of maximal peptide SFU ([2]; patient Z, max peptide 13 SFU): ′′ (21-40% = ′′)
IFN-γ ELISpot response [2, 18]: 43 SFU
Significant response as percentage of maximal peptide SFU [2, 19]: + (>70% = +)
Significant response as percentage of maximal peptide SFU [2, 20]: ′′ (21-40% = ′′)
IFN-γ ELISpot response [2, 21]: 15 SFU
Significant response as percentage of maximal peptide SFU ([2]; patient seven, max peptide 27 SFU): ′′′ (41-70% = ′′′)
IFN-γ ELISpot response ([2]; patient six, 3-5yrs, cut-off 10 SFU): 12 SFU
Significant response as percentage of maximal peptide SFU ([2]; patient six, max peptide 13 SFU): + (>70% = +)
IFN-γ ELISpot response [2, 22]: 10 SFU
Significant response as percentage of maximal peptide SFU ([2]; patient ten, max peptide 14.5 SFU): + (>70% = +)
IFN-γ ELISpot response [2, 23]: 112 SFU
IFN-γ ELISpot response [2, 24]: 13 SFU
IFN-γ ELISpot response [2, 25]: 26 SFU
Significant response as percentage of maximal peptide SFU [2, 26]: ′′′ (41-70% = ′′′)

W05 (QPFPQPEQPFSQQ) [Peptide W05]
Dominance scores 18+ yrs [1]: 15
Dominance score 3-5yrs (n = 9) [2]: 23.4
Dominance score 6-10yrs (n = 10) [2]: 33.3
Dominance score 11-18yrs (n = 11) [2]: 27.1
Dominance score Mean all ages [2]: 28.6
Dominance scores 3-5 yrs [2]: 23
Dominance scores 6-10 yrs [2]: 33
Dominance scores 11-18 yrs [2]: 27
Dominance scores Mean all ages [2]: 28

LQPFPQPELPYPQP [Peptide W02, contains DQ2.5-glia-a1a and a2]
Dominance scores 18+ yrs [1]: 58
magnitude of T cell responses, HLA-DQ2.5 homozygous vs heterozygous [2]: significantly greater
EC50 compared between age groups ([2]; 17 children (3-5, 6-10, 11-18 yrs) and four adults, dose curve 0.1-50 ug/ml): a difference was observed between 3-5 yrs and 6-10 yrs
Dominance score 3-5yrs (n = 9) [2]: 74.8
Dominance score 6-10yrs (n = 10) [2]: 56.9
Dominance score 11-18yrs (n = 11) [2]: 59.6
Dominance score Mean all ages [2]: 63.3
dominance hierarchy across all age groupings [2]: most dominant three peptides
dominance hierarchy across all age groups [2]: most dominant four peptides
response to native vs deamidated form ([2]; all age groups): Deamidation enhanced the response
Dominance scores 3-5 yrs [2]: 77
Dominance scores 6-10 yrs [2]: 57
Dominance scores 11-18 yrs [2]: 60
Dominance scores Mean all ages [2]: 64
IFN-γ ELISpot responses Day 0 prior to vs Day 6 after wheat challenge ([2]; p<0.05, Kruskal Wallis): Significant gluten-specific responses were observed on Day 6 only
